According to the NIST ThermoML archive (doi:10.1021/acs.jced.5b00251):

Assay: refractive index (other wavelength) (dimensionless); xn = mol fraction of the nth substance listed
Conditions: 101 kPa, Liquid, Standard Abbe refractometry

CC(C)Cc1ccccc1 [(2-methylpropyl)benzene] + c1ccc2c(c1)CCCC2
refractive index
Conditions | x2 = 0.1014 | x2 = 0.2024 | x2 = 0.3032 | x2 = 0.4036 | x2 = 0.5038 | x2 = 0.6036 | x2 = 0.7032 | x2 = 0.8024 | x2 = 0.9014
293.15 K, Wavelength=436.1 nm | 1.50977 | 1.51503 | 1.52078 | 1.52612 | 1.53208 | 1.53797 | 1.54392 | 1.55007 | 1.55611
293.15 K, Wavelength=513.9 nm | 1.49809 | 1.50316 | 1.5087 | 1.51409 | 1.51959 | 1.52525 | 1.53097 | 1.5369 | 1.54273
293.15 K, Wavelength=589.3 nm | 1.49141 | 1.49657 | 1.50199 | 1.50701 | 1.51266 | 1.51821 | 1.52382 | 1.52961 | 1.53531
293.15 K, Wavelength=633.2 nm | 1.4889 | 1.49381 | 1.49922 | 1.50445 | 1.50978 | 1.51528 | 1.52085 | 1.5266 | 1.53226
293.15 K, Wavelength=657.2 nm | 1.48749 | 1.49254 | 1.49852 | 1.50384 | 1.50967 | 1.51394 | 1.52005 | 1.52522 | 1.53141
298.15 K, Wavelength=436.1 nm | 1.50717 | 1.51248 | 1.51824 | 1.52362 | 1.52954 | 1.53551 | 1.54144 | 1.54758 | 1.55354
298.15 K, Wavelength=513.9 nm | 1.49546 | 1.50075 | 1.50623 | 1.51165 | 1.51711 | 1.52288 | 1.5286 | 1.53447 | 1.54022
298.15 K, Wavelength=589.3 nm | 1.48927 | 1.49432 | 1.49956 | 1.50446 | 1.51023 | 1.51588 | 1.52148 | 1.52722 | 1.53287
298.15 K, Wavelength=633.2 nm | 1.48633 | 1.49149 | 1.49681 | 1.50206 | 1.50737 | 1.51298 | 1.51853 | 1.52424 | 1.52981
298.15 K, Wavelength=657.2 nm | 1.48512 | 1.49029 | 1.49594 | 1.50135 | 1.50706 | 1.51205 | 1.51776 | 1.52302 | 1.52941
303.15 K, Wavelength=436.1 nm | 1.50468 | 1.50986 | 1.51569 | 1.52094 | 1.52674 | 1.53306 | 1.53885 | 1.54503 | 1.55109
303.15 K, Wavelength=513.9 nm | 1.49315 | 1.49828 | 1.50376 | 1.50899 | 1.5146 | 1.52033 | 1.52606 | 1.532 | 1.53785
303.15 K, Wavelength=589.3 nm | 1.48673 | 1.49163 | 1.49715 | 1.5021 | 1.50776 | 1.51352 | 1.51899 | 1.52478 | 1.53052
303.15 K, Wavelength=633.2 nm | 1.48406 | 1.48893 | 1.49439 | 1.49932 | 1.50493 | 1.51036 | 1.51604 | 1.52181 | 1.52748
303.15 K, Wavelength=657.2 nm | 1.48275 | 1.48792 | 1.49332 | 1.49885 | 1.50461 | 1.50983 | 1.51528 | 1.52043 | 1.52666
